According to ChEMBL document CHEMBL5291721, “A preclinical secondary pharmacology resource illuminates target-adverse drug reaction associations of marketed drugs” (Nat Commun, 2023):

Columns and labels:
[1] = target: T1, Alpha-1A adrenergic receptor (Homo sapiens, UniProt P35348)
T1 sequence (P35348 whole entry): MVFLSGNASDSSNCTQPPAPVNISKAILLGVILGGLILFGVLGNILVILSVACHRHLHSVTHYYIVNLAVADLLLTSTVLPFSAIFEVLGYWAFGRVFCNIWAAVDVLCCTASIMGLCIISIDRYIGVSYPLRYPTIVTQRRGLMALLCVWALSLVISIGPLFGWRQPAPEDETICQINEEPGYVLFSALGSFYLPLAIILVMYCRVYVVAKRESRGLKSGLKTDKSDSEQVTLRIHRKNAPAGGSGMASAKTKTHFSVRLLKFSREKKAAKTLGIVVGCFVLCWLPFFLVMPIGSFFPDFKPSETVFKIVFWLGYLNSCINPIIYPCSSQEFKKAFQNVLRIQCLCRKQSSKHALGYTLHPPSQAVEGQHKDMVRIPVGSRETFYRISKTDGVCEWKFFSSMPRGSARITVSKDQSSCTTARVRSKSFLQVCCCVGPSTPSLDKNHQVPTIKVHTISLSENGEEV

[2] = target: T2, Muscarinic acetylcholine receptor M1 (Homo sapiens, UniProt P11229)
T2 sequence (P11229 whole entry): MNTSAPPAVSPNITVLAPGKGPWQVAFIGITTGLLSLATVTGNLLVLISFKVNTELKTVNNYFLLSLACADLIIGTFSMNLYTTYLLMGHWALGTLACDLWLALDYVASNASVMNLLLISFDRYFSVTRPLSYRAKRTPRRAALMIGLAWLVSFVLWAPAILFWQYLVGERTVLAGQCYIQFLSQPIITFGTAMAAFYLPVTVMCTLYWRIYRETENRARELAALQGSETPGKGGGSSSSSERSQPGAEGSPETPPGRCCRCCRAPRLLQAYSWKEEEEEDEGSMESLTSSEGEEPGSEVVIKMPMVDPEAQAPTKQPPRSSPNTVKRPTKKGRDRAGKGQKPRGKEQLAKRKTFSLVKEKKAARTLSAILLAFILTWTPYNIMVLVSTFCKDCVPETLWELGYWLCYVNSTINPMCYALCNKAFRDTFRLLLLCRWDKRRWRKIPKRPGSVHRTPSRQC

Androgen receptor [3] = target: T3, Androgen receptor (Rattus norvegicus, UniProt P15207)
T3 sequence (P15207 whole entry): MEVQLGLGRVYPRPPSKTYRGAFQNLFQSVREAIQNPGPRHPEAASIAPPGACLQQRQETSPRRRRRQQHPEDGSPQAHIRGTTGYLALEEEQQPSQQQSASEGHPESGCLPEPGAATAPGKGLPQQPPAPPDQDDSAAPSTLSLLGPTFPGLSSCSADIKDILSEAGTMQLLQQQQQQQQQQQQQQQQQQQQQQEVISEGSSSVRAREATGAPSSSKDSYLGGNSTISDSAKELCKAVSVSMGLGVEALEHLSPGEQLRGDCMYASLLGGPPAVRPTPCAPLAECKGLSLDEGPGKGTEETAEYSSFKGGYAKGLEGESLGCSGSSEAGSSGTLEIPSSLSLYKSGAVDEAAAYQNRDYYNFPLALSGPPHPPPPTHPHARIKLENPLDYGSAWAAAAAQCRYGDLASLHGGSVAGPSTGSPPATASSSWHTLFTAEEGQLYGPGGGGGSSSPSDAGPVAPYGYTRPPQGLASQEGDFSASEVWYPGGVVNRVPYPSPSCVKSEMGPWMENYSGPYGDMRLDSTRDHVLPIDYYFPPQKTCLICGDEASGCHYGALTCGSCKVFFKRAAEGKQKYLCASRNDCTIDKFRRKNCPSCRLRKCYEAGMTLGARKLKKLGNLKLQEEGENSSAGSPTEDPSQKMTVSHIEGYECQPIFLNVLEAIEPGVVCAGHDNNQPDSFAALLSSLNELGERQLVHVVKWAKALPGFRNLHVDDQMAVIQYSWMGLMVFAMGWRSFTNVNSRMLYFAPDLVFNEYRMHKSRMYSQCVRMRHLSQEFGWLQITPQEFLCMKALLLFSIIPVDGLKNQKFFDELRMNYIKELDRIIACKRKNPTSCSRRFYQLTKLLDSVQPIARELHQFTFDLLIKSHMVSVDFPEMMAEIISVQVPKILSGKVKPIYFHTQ

Estrogen receptor beta = Estrogen receptor beta (Homo sapiens, UniProt Q92731)
Sequence of Estrogen receptor beta (Q92731 whole entry): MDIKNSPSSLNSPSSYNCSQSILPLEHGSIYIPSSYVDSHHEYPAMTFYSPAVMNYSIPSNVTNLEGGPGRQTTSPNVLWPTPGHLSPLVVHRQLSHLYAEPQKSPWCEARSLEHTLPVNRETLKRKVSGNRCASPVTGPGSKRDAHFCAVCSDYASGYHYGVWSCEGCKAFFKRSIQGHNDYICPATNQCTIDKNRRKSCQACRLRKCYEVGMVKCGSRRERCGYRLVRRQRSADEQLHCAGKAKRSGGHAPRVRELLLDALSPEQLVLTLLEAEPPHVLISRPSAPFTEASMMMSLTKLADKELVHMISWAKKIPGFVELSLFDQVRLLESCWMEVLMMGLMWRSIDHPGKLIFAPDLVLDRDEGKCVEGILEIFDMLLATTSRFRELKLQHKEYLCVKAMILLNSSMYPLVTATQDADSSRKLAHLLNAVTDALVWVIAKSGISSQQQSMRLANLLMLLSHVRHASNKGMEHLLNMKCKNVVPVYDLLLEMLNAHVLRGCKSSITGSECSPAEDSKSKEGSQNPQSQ

[4] = target: 5-hydroxytryptamine receptor 2B (Homo sapiens, UniProt P41595)
Sequence of 5-hydroxytryptamine receptor 2B (P41595 whole entry): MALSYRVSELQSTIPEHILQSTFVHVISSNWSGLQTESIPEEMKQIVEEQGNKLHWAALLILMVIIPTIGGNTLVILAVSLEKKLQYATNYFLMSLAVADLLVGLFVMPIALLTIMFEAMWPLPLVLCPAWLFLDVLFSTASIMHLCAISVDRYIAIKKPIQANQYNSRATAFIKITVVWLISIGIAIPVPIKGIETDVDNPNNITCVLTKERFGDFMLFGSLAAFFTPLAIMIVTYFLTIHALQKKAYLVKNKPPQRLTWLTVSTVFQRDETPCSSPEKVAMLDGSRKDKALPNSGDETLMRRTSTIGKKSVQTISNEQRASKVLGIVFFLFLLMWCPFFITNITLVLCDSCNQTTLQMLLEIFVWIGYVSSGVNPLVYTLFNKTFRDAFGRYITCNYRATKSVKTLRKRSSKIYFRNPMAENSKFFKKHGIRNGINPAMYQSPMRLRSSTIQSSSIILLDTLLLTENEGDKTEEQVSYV

[5] = target: T4, Alpha-2A adrenergic receptor (Homo sapiens, UniProt P08913)
T4 sequence (P08913 whole entry): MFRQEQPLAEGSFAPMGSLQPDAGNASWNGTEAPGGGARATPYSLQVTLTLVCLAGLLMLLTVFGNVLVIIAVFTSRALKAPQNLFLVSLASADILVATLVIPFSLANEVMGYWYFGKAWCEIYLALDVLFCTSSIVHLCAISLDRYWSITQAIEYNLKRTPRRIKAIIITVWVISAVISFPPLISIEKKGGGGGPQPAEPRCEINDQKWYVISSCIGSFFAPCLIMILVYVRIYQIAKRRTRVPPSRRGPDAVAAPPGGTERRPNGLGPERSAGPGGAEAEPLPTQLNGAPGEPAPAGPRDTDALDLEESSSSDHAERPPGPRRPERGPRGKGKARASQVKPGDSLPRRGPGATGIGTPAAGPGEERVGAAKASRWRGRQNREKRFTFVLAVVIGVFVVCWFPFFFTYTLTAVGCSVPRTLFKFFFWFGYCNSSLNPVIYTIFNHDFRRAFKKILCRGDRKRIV

[6] = target: 5-hydroxytryptamine receptor 2A (Homo sapiens, UniProt P28223)
Sequence of 5-hydroxytryptamine receptor 2A (P28223 whole entry): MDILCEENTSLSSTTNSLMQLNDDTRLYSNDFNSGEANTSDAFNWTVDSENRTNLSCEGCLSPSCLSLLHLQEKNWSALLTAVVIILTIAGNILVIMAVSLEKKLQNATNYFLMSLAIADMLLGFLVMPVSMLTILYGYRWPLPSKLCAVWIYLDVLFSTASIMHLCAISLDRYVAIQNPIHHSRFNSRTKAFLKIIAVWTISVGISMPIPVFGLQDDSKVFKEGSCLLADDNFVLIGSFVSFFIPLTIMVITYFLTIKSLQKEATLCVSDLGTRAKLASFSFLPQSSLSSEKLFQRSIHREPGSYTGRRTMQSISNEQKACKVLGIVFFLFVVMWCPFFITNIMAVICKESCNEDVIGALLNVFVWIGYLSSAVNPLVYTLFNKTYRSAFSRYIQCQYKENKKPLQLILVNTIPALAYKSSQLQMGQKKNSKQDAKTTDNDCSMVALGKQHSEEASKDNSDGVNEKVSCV

D(1B) dopamine receptor = D(1B) dopamine receptor (Homo sapiens, UniProt P21918)
Sequence of D(1B) dopamine receptor (P21918 whole entry): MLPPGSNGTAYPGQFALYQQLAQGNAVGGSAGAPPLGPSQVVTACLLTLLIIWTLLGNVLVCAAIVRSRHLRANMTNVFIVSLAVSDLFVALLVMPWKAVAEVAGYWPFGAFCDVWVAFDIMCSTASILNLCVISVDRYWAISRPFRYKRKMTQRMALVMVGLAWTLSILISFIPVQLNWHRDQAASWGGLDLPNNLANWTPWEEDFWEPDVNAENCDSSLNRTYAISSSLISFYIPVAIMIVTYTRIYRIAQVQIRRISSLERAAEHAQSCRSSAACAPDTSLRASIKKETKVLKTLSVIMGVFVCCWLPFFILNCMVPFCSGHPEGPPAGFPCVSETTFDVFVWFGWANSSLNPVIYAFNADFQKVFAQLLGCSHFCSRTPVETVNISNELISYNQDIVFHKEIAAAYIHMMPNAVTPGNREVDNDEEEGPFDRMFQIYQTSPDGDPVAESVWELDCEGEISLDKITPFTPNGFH

Androgen receptor [7] = target: T3, Androgen receptor; assay type: functional
Androgen receptor [8] = target: T3, Androgen receptor; assay type: functional; remark: listed apart in the source
[9] = target: Hydroxycarboxylic acid receptor 2 (Homo sapiens, UniProt Q8TDS4)
Sequence of Hydroxycarboxylic acid receptor 2 (Q8TDS4 whole entry): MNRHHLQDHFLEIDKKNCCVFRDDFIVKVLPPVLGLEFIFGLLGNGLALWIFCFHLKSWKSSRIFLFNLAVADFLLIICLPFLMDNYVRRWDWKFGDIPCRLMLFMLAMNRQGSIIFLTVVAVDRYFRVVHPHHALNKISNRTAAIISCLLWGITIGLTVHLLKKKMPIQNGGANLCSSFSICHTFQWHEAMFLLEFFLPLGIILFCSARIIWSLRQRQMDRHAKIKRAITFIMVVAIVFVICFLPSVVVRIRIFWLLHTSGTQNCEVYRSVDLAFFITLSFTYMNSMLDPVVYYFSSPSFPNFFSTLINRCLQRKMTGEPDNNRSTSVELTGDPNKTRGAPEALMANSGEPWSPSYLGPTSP

[10] = target: T5, Gamma-aminobutyric acid receptor subunit alpha-1/alpha-2/beta-2/gamma-2 (Homo sapiens, UniProt P14867+P18507+P47869+P47870); assay type: functional, cell-based
T5 sequence (P14867 whole entry): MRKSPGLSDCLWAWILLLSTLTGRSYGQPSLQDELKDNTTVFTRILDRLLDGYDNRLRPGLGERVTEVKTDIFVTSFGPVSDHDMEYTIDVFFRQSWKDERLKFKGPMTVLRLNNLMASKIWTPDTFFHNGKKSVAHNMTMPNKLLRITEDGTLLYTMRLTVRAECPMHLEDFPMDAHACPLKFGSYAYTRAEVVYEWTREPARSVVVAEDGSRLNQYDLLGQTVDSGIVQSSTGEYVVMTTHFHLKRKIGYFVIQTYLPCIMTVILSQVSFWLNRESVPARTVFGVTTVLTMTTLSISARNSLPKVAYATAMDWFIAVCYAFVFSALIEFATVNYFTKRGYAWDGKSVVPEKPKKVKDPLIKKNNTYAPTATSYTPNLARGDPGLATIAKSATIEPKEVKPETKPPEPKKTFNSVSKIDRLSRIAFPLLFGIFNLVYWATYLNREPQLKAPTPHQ
T5 sequence (P47870 whole entry): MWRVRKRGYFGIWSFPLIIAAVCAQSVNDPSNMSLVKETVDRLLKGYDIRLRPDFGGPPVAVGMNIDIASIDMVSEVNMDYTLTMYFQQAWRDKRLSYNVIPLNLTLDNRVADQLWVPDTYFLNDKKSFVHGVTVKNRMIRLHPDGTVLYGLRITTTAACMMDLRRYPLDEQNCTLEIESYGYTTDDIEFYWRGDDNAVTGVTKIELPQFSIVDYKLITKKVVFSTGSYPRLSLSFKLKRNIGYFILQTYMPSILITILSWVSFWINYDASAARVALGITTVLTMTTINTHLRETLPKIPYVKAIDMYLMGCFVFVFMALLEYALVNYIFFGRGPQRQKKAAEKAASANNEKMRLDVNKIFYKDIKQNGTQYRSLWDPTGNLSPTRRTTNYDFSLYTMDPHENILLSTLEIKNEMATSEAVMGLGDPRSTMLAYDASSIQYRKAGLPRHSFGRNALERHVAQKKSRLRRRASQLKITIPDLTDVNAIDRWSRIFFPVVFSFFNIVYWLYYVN
T5 sequence (P18507 whole entry): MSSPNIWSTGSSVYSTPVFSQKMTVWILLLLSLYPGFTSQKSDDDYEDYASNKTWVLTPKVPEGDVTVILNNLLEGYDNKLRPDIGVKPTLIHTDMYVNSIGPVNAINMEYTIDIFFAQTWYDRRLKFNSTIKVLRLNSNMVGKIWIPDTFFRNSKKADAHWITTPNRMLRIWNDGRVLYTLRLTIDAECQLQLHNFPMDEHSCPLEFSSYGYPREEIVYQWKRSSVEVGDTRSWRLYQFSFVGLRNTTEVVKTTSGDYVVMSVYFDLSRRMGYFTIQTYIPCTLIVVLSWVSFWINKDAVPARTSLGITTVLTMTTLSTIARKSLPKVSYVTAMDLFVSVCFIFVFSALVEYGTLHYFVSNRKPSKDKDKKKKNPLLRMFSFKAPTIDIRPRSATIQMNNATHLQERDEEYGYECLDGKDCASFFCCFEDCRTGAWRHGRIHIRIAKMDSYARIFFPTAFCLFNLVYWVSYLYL
T5 sequence (P47869 whole entry): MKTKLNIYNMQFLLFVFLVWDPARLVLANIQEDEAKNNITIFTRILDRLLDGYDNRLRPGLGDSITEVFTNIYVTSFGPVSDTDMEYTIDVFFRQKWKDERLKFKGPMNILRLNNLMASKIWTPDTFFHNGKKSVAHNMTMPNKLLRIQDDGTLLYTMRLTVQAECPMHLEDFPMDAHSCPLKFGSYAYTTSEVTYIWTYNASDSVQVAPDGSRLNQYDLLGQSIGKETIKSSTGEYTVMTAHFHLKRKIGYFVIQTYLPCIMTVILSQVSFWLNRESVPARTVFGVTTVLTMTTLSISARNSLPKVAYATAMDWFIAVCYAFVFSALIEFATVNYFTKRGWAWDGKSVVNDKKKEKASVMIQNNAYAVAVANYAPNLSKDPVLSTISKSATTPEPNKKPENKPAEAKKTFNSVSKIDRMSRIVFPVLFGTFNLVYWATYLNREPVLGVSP

[11] = target: T5, Gamma-aminobutyric acid receptor subunit alpha-1/alpha-2/beta-2/gamma-2; assay type: functional, cell-based; remark: listed apart in the source
[12] = target: Sodium channel protein type 5 subunit alpha (Homo sapiens, UniProt Q14524); assay type: functional, cell-based
Also: assay procedure not described here.

Compound: CCCCCCCC(=O)N[C@H](CN1CCCC1)[C@H](O)c1ccc2c(c1)OCCO2
- AC50 [1]: > 30 µM
- AC50 [2]: > 30 µM

Compound: C[C@]1(COc2ccc(N3CCC(Oc4ccc(OC(F)(F)F)cc4)CC3)cc2)Cn2cc([N+](=O)[O-])nc2O1
- AC50 (Androgen receptor [3]): > 30 µM
- AC50 (Estrogen receptor beta): > 30 µM
- AC50 [4]: > 10 µM
- AC50 [5]: > 10 µM
- AC50 [6]: > 10 µM

Compound: C[C@]12CC[C@H](O)CC1=CC[C@@H]1[C@@H]2CC[C@]2(C)C(c3cccnc3)=CC[C@@H]12 [ABIRATERONE]
- AC50 (Androgen receptor [3]): > 30 µM
- AC50 [6]: > 10 µM

Compound: CC(=O)OCC[N+](C)(C)C [ACETYLCHOLINE]
- AC50 (Estrogen receptor beta): > 30 µM
- AC50 [4]: > 10 µM
- AC50 [5]: > 10 µM
- AC50 [6]: > 10 µM

Compound: O=C(Nc1nc(-c2cc(Cl)cs2)c(N2CCN(C3CCCCC3)CC2)s1)c1cnc(N2CCC(C(=O)O)CC2)c(Cl)c1 [AVATROMBOPAG]
- AC50 [1]: > 30 µM
- AC50 [2]: > 30 µM
- AC50 (D(1B) dopamine receptor): > 10 µM
- AC50 [4]: > 10 µM
- AC50 [5]: > 10 µM
- AC50 [6]: > 10 µM

Compound: CN(C)C(=O)Oc1cc(OC(=O)N(C)C)cc(C(O)CNC(C)(C)C)c1 (stereo not drawn) [BAMBUTEROL]
- AC50 (Androgen receptor [7]): > 30 µM
- AC50 (Androgen receptor [8]): > 30 µM

Compound: C[C@H]1C[C@H]2[C@@H]3CCC4=CC(=O)C=C[C@]4(C)[C@@]3(Cl)[C@@H](O)C[C@]2(C)[C@@]1(O)C(=O)CO [BECLOMETHASONE]
- AC50 [9]: > 10 µM
- AC50 [4]: > 10 µM
- AC50 [5]: > 10 µM

Compound: CO[C@@]1(NC(=O)CSCC#N)C(=O)N2C(C(=O)O)=C(CSc3nnnn3C)CS[C@@H]21 [CEFMETAZOLE]
- AC50 [1]: > 30 µM
- AC50 [10]: > 30 µM

Compound: CO/N=C(\C(=O)N[C@@H]1C(=O)N2C(C(=O)[O-])=C(C[n+]3cccc4c3CCC4)CS[C@H]12)c1csc(N)n1 [CEFPIROME]
- AC50 [10]: > 30 µM
- AC50 [11]: > 30 µM

Compound: Oc1c(I)cc(Cl)c2cccnc12 [CLIOQUINOL]
- AC50 [1]: > 30 µM
- AC50 [2]: > 30 µM
- AC50 [10]: > 30 µM
- AC50 [11]: > 30 µM

Compound: COc1ccc2c(c1)[C@]13CCCC[C@@H]1[C@H](C2)N(C)CC3 [DEXTROMETHORPHAN]
- AC50 (Estrogen receptor beta): > 30 µM
- AC50 [4]: 5.8 µM
- AC50 [12]: > 30 µM
- AC50 [5]: 11.2 µM

Compound: O=c1oc2ccccc2c(O)c1Cc1c(O)c2ccccc2oc1=O [DICUMAROL]
- AC50 (Androgen receptor [3]): > 10 µM

Compound: O=C(CCCN1CC=C(n2c(=O)[nH]c3ccccc32)CC1)c1ccc(F)cc1 [DROPERIDOL]
- AC50 [12]: 49 µM

Compound: CCn1cc(C(=O)O)c(=O)c2cc(F)c(N3CCNCC3)nc21 [ENOXACIN]
- AC50 (D(1B) dopamine receptor): > 10 µM
- AC50 (Estrogen receptor beta): > 30 µM
- AC50 [4]: > 10 µM
- AC50 [5]: > 10 µM

Compound: O=C(O)CSCC(=O)NC1CCSC1=O (stereo not drawn) [ERDOSTEINE]
- AC50 (Androgen receptor [7]): > 30 µM
- AC50 (Androgen receptor [8]): > 30 µM

Compound: CCC(=O)O[C@@H]1CC(=O)O[C@H](C)C/C=C/C=C/[C@H](OC(C)=O)[C@H](C)C[C@H](CC=O)[C@H](O[C@@H]2O[C@H](C)[C@@H](O[C@H]3C[C@@](C)(OC(C)=O)[C@@H](OC(=O)CC)[C@H](C)O3)[C@H](N(C)C)[C@H]2O)[C@H]1OC [MIOCAMYCIN]
- AC50 [1]: > 30 µM
- AC50 [2]: > 30 µM

Compound: N=C(N)c1ccc2cc(OC(=O)c3ccc(N=C(N)N)cc3)ccc2c1 [NAFAMOSTAT]
- AC50 (Androgen receptor [7]): 12 µM

Compound: C1CNCCN1 [PIPERAZINE]
- AC50 [1]: > 30 µM
- AC50 [2]: > 30 µM

Compound: COCCCOc1ccnc(C[S+]([O-])c2nc3ccccc3[nH]2)c1C (stereo not drawn) [RABEPRAZOLE]
- AC50 (Estrogen receptor beta): > 30 µM
- AC50 [9]: > 10 µM
- AC50 [4]: > 10 µM
- AC50 [5]: > 10 µM

Compound: CC(C)=CCOc1ccc(/C=C/C(=O)c2ccc(OCC=C(C)C)cc2OCC(=O)O)cc1 [SOFALCONE]
- AC50 (Androgen receptor [7]): > 30 µM
- AC50 (Androgen receptor [8]): 6.1 µM

Compound: O=C(CCCN1CCC2(CC1)C(=O)NCN2c1ccccc1)c1ccc(F)cc1 [SPIPERONE]
- AC50 [10]: > 30 µM
- AC50 [11]: > 30 µM
- AC50 [4]: 0.66 µM

Compound: CN(C)c1cc(NC(=O)CNC(C)(C)C)c(O)c2c1C[C@H]1C[C@H]3[C@H](N(C)C)C(O)=C(C(N)=O)C(=O)[C@@]3(O)C(O)=C1C2=O [TIGECYCLINE]
- AC50 (Androgen receptor [3]): > 30 µM

Compound: OCCN1CCN(CC/C=C2/c3ccccc3Sc3ccc(Cl)cc32)CC1 [ZUCLOPENTHIXOL]
- AC50 (Androgen receptor [3]): > 10 µM
- AC50 [4]: 0.0144 µM
- AC50 [5]: 7.34 µM
- AC50 [6]: 0.0046 µM
